The record followed here is patent US8778941B2, “TRPM8 antagonists and their use in treatments” (AMGEN Inc., priority 2011, dated 2014).

Each structure is given as a SMILES string.

The assay addresses T1, human TRPM8 (Homo sapiens, UniProt Q7Z2W7).
T1 construct: expressed in transfected cells; host or cells: Chinese hamster ovary (CHO) cells, T-REx tetracycline-inducible expression system (Invitrogen), co-transfected with pcDNA3.1 jellyfish aequorin
The assay is described as follows: Luminescence readout assay for measuring intracellular calcium (aequorin), hTRPM8 antagonism. The class given is cell-based. The settings on record: CHO cell line expressing human TRPM8 and aequorin; activation by icilin, L-menthol or cold buffer (table does not say which). The method, then:
Luminescence Readout Assay for Measuring Intracellular Calcium.
A stable Chinese hamster ovary cell line expressing human TRPM8 was generated using tetracycline inducible T-REx™ expression system from Invitrogen, Inc. (Carlsbad, Calif.). […] Twenty four hours before the assay, cells were seeded in 96-well plates and TRPM8 expression was induced with 0.5 μg/mL tetracycline. […] Potential antagonists were added 2.5 min prior to the addition of agonist, […], 100 µM L-menthol, or 1 min prior to the addition of cold buffer (<10° C.). The luminescence was measured by a CCD camera based FLASH-luminometer built by Amgen, Inc. A cooling device attached to FLASH luminometer was used for cold activation.

T1 sequence (Q7Z2W7 whole entry): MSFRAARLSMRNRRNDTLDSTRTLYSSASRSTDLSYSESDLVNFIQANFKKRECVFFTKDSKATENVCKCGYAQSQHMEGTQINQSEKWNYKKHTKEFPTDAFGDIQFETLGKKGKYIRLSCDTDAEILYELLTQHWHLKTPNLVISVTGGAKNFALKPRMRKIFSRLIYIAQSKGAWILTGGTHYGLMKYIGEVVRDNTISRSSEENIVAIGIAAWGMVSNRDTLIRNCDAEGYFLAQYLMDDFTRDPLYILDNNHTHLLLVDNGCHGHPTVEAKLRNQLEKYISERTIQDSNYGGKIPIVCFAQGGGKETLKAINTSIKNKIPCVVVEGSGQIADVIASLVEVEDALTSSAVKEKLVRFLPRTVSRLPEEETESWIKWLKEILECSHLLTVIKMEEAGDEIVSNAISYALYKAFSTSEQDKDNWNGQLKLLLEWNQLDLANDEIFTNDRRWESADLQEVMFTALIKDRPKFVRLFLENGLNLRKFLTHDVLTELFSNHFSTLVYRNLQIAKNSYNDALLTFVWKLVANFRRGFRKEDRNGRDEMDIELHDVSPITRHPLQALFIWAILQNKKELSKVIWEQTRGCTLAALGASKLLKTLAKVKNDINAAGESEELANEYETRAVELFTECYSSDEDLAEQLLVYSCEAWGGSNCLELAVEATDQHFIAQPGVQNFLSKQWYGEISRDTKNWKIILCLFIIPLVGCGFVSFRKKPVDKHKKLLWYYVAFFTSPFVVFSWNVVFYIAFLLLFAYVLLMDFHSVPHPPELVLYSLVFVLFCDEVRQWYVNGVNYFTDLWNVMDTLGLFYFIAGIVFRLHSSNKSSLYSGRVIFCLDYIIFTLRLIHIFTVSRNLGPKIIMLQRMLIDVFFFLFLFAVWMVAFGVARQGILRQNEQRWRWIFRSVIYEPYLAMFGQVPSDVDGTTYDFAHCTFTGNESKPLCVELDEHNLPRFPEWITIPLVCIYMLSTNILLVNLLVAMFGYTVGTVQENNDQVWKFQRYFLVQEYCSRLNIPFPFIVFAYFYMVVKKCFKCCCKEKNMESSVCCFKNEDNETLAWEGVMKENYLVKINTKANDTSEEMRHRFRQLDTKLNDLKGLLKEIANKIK

For the molecule `C[C@@H](NC(=O)N[C@@H](c1ccc(C(F)(F)F)cc1)c1ncccc1C(F)(F)F)c1ccccc1` [Example 70, 1-((R)-1-phenylethyl)-3-((S)-(4-(trifluoro-methyl)-phenyl)(3-(trifluoro-methyl)-pyridin-2-yl)-methyl)urea (2,2,2-trifluoro-acetate)], the IC50 – broadly, the concentration needed to halve the response being measured – came to 781 nM.

`CC(C)(C)c1ccccc1NC(=O)N[C@@H](c1ccc(C(F)(F)F)cc1)c1ncccc1C(F)(F)F` [Example 71, (S)-1-(tert-butylphenyl)-3-((4-(trifluoro-methyl)-phenyl)(3-(trifluoro-methyl)-pyridin-2-yl)-methyl)urea (2,2,2-trifluoro-acetate)]: the half-maximal inhibitory concentration (IC50) stood at 5710 nM.

As to `O=C(NCc1cccc(F)c1)N[C@@H](c1ccc(C(F)(F)F)cc1)c1ncccc1C(F)(F)F` [Example 72, (S)-1-(3-fluorobenzyl)-3-((4-(trifluoro-methyl)-phenyl)(3-(trifluoro-methyl)-pyridin-2-yl)-methyl)urea (2,2,2-trifluoro-acetate)], the IC50 is 163 nM.

As for `O=C(NCc1ccccc1Cl)N[C@@H](c1ccc(C(F)(F)F)cc1)c1ncccc1C(F)(F)F` [Example 73, (S)-1-(2-chlorobenzyl)-3-((4-(trifluoro-methyl)-phenyl)(3-(trifluoro-methyl)-pyridin-2-yl)-methyl)urea (2,2,2-trifluoro-acetate)], the IC50 was 332 nM.

Regarding `COc1ccc(NC(=O)N[C@@H](c2ccc(C(F)(F)F)cc2)c2ncccc2C(F)(F)F)cc1OC` [Example 74, (S)-1-(3,4-dimethoxy-phenyl)-3-((4-(trifluoro-methyl)-phenyl)(3-(trifluoro-methyl)-pyridin-2-yl)-methyl)urea (2,2,2-trifluoro-acetate)], the IC50 is 112 nM.

In the case of `O=C(NC1CCN(C(=O)OCc2ccccc2)CC1)N[C@@H](c1ccc(C(F)(F)F)cc1)c1ncccc1C(F)(F)F` [Example 75, (S)-benzyl 4-(3-((4-(trifluoro-methyl)-phenyl)(3-(trifluoro-methyl)-pyridin-2-yl)-methyl)-ureido)-piperidine-1-carboxylate (2,2,2-trifluoro-acetate)], the IC50 is 670 nM.

Turning to `O=C(Nc1cc(Cl)nc(Cl)c1)N[C@@H](c1ccc(C(F)(F)F)cc1)c1ncccc1C(F)(F)F` [Example 76, (S)-1-(2,6-dichloropyridin-4-yl)-3-((4-(trifluoro-methyl)-phenyl)(3-(trifluoro-methyl)-pyridin-2-yl)-methyl)urea (2,2,2-trifluoro-acetate)], the IC50 stood at 294 nM.

Turning to `Cc1nc(-c2cccc(NC(=O)N[C@@H](c3ccc(C(F)(F)F)cc3)c3ncccc3C(F)(F)F)c2)no1` [Example 77, (S)-1-(3-(5-methyl-1,2,4-oxadiazol-3-yl)phenyl)-3-((4-(trifluoro-methyl)-phenyl)(3-(trifluoro-methyl)-pyridin-2-yl)-methyl)urea (2,2,2-trifluoro-acetate)], the IC50 came out at 235 nM.

On to `COC(=O)[C@H](CCSC)NC(=O)N[C@@H](c1ccc(C(F)(F)F)cc1)c1ncccc1C(F)(F)F` [Example 78, (S)-methyl 4-(methylthio)-2-(3-((S)-(4-(trifluoro-methyl)-phenyl)(3-(trifluoro-methyl)-pyridin-2-yl)-methyl)-ureido)-butanoate (2,2,2-trifluoro-acetate)], for which the IC50 came to 1230 nM.

Turning to `COC(=O)[C@H](C)NC(=O)N[C@@H](c1ccc(C(F)(F)F)cc1)c1ncccc1C(F)(F)F` [Example 79, (S)-methyl-2-(3-((S)-(4-(trifluoro-methyl)-phenyl)(3-(trifluoro-methyl)-pyridin-2-yl)-methyl)-ureido)-propanoate (2,2,2-trifluoro-acetate)], the IC50 was 1500 nM.

Turning to `COc1ccc([C@H](C)NC(=O)N[C@@H](c2ccc(C(F)(F)F)cc2)c2ncccc2C(F)(F)F)cc1` [Example 80, 1-((S)-1-(4-methoxy-phenyl)ethyl)-3-((S)-(4-(trifluoro-methyl)-phenyl)(3-(trifluoro-methyl)-pyridin-2-yl)-methyl)urea (2,2,2-trifluoro-acetate)], the IC50 came out at 399 nM.

Consider `CCOC(=O)NC(=O)N[C@@H](c1ccc(C(F)(F)F)cc1)c1ncccc1C(F)(F)F` [Example 81], for which the IC50 was found to be 496 nM.

For the molecule `COc1cccc(CCNC(=O)N[C@@H](c2ccc(C(F)(F)F)cc2)c2ncccc2C(F)(F)F)c1OC` [Example 82, (S)-1-(2,3-dimethoxy-phenethyl)-3-((4-(trifluoro-methyl)-phenyl)(3-(trifluoro-methyl)-pyridin-2-yl)-methyl)urea (2,2,2-trifluoro-acetate)], the IC50 was found to be 559 nM.

Consider `CCCC[C@H](C)NC(=O)N[C@@H](c1ccc(C(F)(F)F)cc1)c1ncccc1C(F)(F)F` [Example 83, 1-((S)-hexan-2-yl)-3-((S)-(4-(trifluoro-methyl)-phenyl)(3-(trifluoro-methyl)-pyridin-2-yl)-methyl)urea (2,2,2-trifluoro-acetate)], for which the concentration for half-maximal inhibition (IC50) turned out to be 115 nM.

Turning to `COc1cccc([C@H](C)NC(=O)N[C@@H](c2ccc(C(F)(F)F)cc2)c2ncccc2C(F)(F)F)c1` [Example 84, 1-((S)-1-(3-methoxy-phenyl)ethyl)-3-((S)-(4-(trifluoro-methyl)-phenyl)(3-(trifluoro-methyl)-pyridin-2-yl)-methyl)urea (2,2,2-trifluoro-acetate)], the IC50 is 767 nM.

On to `Cc1ccccc1CNC(=O)N[C@@H](c1ccc(C(F)(F)F)cc1)c1ncccc1C(F)(F)F` [Example 85, (S)-1-(2-methylbenzyl)-3-((4-(trifluoro-methyl)-phenyl)(3-(trifluoro-methyl)-pyridin-2-yl)-methyl)urea (2,2,2-trifluoro-acetate)], for which the IC50 was found to be 405 nM.

In the case of `CC(=O)c1cccc(NC(=O)N[C@@H](c2ccc(C(F)(F)F)cc2)c2ncccc2C(F)(F)F)c1` [Example 86, (S)-1-(3-acetylphenyl)-3-((4-(trifluoro-methyl)-phenyl)(3-(trifluoro-methyl)-pyridin-2-yl)-methyl)urea (2,2,2-trifluoro-acetate)], the 50% inhibitory concentration (IC50) worked out at 31 nM.

Take `O=C(NCc1ccccc1F)N[C@@H](c1ccc(C(F)(F)F)cc1)c1ncccc1C(F)(F)F` [Example 87, (S)-1-(2-fluorobenzyl)-3-((4-(trifluoro-methyl)-phenyl)(3-(trifluoro-methyl)-pyridin-2-yl)-methyl)urea (2,2,2-trifluoro-acetate)]: the IC50 came to 199 nM.

On to `CCc1cccc(CC)c1NC(=O)N[C@@H](c1ccc(C(F)(F)F)cc1)c1ncccc1C(F)(F)F` [Example 88, (S)-1-(2,6-diethylphenyl)-3-((4-(trifluoro-methyl)-phenyl)(3-(trifluoro-methyl)-pyridin-2-yl)-methyl)urea (2,2,2-trifluoro-acetate)], for which the IC50 turned out to be 108 nM.

Regarding `CCc1cccc(C)c1NC(=O)N[C@@H](c1ccc(C(F)(F)F)cc1)c1ncccc1C(F)(F)F` [Example 89, (S)-1-(2-ethyl-6-methylphenyl)-3-((4-(trifluoro-methyl)-phenyl)(3-(trifluoro-methyl)-pyridin-2-yl)-methyl)urea (2,2,2-trifluoro-acetate)], the IC50 was 330 nM.

For the molecule `CCOC(=O)c1cccc(NC(=O)N[C@@H](c2ccc(C(F)(F)F)cc2)c2ncccc2C(F)(F)F)c1` [Example 90, (S)-ethyl 3-(3-((4-(trifluoro-methyl)-phenyl)(3-(trifluoro-methyl)-pyridin-2-yl)-methyl)-ureido)-benzoate (2,2,2-trifluoro-acetate)], the IC50 was 646 nM.

On to `CCc1cccc(C(C)C)c1NC(=O)N[C@@H](c1ccc(C(F)(F)F)cc1)c1ncccc1C(F)(F)F` [Example 91, (S)-1-(2-ethyl-6-isopropylphenyl)-3-((4-(trifluoro-methyl)-phenyl)(3-(trifluoro-methyl)-pyridin-2-yl)-methyl)urea (2,2,2-trifluoro-acetate)], for which the IC50 was 670 nM.

For `Cc1cccc(C(C)C)c1NC(=O)N[C@@H](c1ccc(C(F)(F)F)cc1)c1ncccc1C(F)(F)F` [Example 92, (S)-1-(2-isopropyl-6-methylphenyl)-3-((4-(trifluoro-methyl)-phenyl)(3-(trifluoro-methyl)-pyridin-2-yl)-methyl)urea (2,2,2-trifluoro-acetate)], the IC50 was 713 nM.

In the case of `COc1cc(CCNC(=O)N[C@@H](c2ccc(C(F)(F)F)cc2)c2ncccc2C(F)(F)F)cc(OC)c1` [Example 93, (S)-1-(3,5-dimethoxy-phenethyl)-3-((4-(trifluoro-methyl)-phenyl)(3-(trifluoro-methyl)-pyridin-2-yl)-methyl)urea (2,2,2-trifluoro-acetate)], the IC50 was 1440 nM.

As to `CCOC(=O)[C@H](C)NC(=O)N[C@@H](c1ccc(C(F)(F)F)cc1)c1ncccc1C(F)(F)F` [Example 94, (S)-ethyl 2-(3-((S)-(4-(trifluoro-methyl)-phenyl)(3-(trifluoro-methyl)-pyridin-2-yl)-ureido)-propanoate (2,2,2-trifluoro-acetate)], the IC50 amounted to 1710 nM.

Regarding `COc1ccc(CCNC(=O)N[C@@H](c2ccc(C(F)(F)F)cc2)c2ncccc2C(F)(F)F)cc1OC` [Example 95, (S)-1-(3,4-dimethoxy-phenethyl)-3-((4-(trifluoro-methyl)-phenyl)(3-(trifluoro-methyl)-pyridin-2-yl)-methyyl)urea (2,2,2-trifluoro-acetate)], the IC50 worked out at 1920 nM.

For the molecule `COC(=O)[C@@H](NC(=O)N[C@@H](c1ccc(C(F)(F)F)cc1)c1ncccc1C(F)(F)F)C(C)C` [Example 96, (S)-methyl 3-(methyl-2-(3-((S)-(4-(trifluoro-methyl)-phenyl)(3-(trifluoro-methyl)-pyridin-2-yl)-methyl)-ureido)-butanoate (2,2,2-trifluoro-acetate)], the half-maximal inhibitory concentration (IC50) is 884 nM.
